Data on eight molecules can be found in patent publication US11384126B2, “Compositions and methods for inhibiting DHHC-type palmitoyltransferases for cancer treatment” (DANA-FARBER CANCER INSTITUTE, INC., priority 2017, dated 2022).

The subject of one assay is DHHC proteins. Conditions: literature: Jennings et al., 2008; cited from earlier work.
The subject of a further assay is MDA-MB-231 cells. Briefly: apoptotic cell death, caspase-3 blot after chemotherapeutic agents. The assay is classed as cell-based, human. Conditions: for cell sensitivity to drug (apoptotic cell death, caspase-3) when zDHHC3 is ablated: MDA-MB-231, 25 hr, D3 shRNA vs control shRNA, Camptothecin 2 μM, Gefitinib 50 μM, 5-Fluorouracil 10 μg/ml. The method, then:
Specifically, human breast carcinoma MDA-MB-231 cells were treated with Camptothecin (2 μM), Gefitinib (50 μM), 5-Fluorouracil (10 μg/ml), or DMSO (vehicle control), for 25 hr, lysed, then blotted for caspase-3, to assess apoptotic cell death. C=control shRNA; D3=stable DHHC3 ablation; D3^R=shRNA knockdown cells reconstituted with wild type DHHC3; D3^M=mutant DHHC3 (inactivated by C→S active site mutation).

The subject of a further assay is MCP-1. Briefly: MCP-1 secretion (senescence-associated), western blotting. Format: cell-based, human. Conditions: MDA-MB-231 cells, FIG. 2C bottom panel. (In western blotting, separated proteins are transferred to a membrane and probed.)
A further assay deals with ZDHHC3-ablated cells. Briefly: senescence, C12FDG dye (β-galactosidase), flow cytometry. Format: cell-based, human. Conditions: summary statement. The method, then:
To assess oxidative stress/reactive oxygen species (ROS), control and ZDHHC3-ablated tumor cells were trypsinized and suspended in complete medium. After PBS wash, cells were loaded with 2 μM CellROX dye in complete medium (37° C., 30 min). Cells were then washed twice with IX PBS, incubated in complete media (37° C., 30 min), washed twice again with 1×PBS, and then analyzed by flow cytometry. Similarly, senescence was measured by loading suspended control and ZDHHC3 ablated cells with C12FDG dye (30 min, 37° C.) in complete medium. The C12FDG dye is converted by intracellular β-galactosidase (elevated in senescent cells) to produce fluorescence, which was quantitated by flow cytometry.
For orientation: In flow cytometry, cells or beads pass a laser one at a time.

Assay [1] relates to ZDHHC3-ablated MDA-MB-231 cells. As to the kind of experiment: oxidative stress/ROS, CellROX dye, flow cytometry. Conditions: for effect on oxidative stress/ROS elevated by ZDHHC3 ablation: ZDHHC3-ablated MDA-MB-231 cells, CellROX; for direct and indirect effects of oxidative stress in ZDHHC3-ablated cells: summary statement. The assay is classed as cell-based, human. How it is done:
To assess oxidative stress/reactive oxygen species (ROS), control and ZDHHC3-ablated tumor cells were trypsinized and suspended in complete medium. After PBS wash, cells were loaded with 2 μM CellROX dye in complete medium (37° C., 30 min). Cells were then washed twice with IX PBS, incubated in complete media (37° C., 30 min), washed twice again with 1×PBS, and then analyzed by flow cytometry. Similarly, senescence was measured by loading suspended control and ZDHHC3 ablated cells with C12FDG dye (30 min, 37° C.) in complete medium. The C12FDG dye is converted by intracellular β-galactosidase (elevated in senescent cells) to produce fluorescence, which was quantitated by flow cytometry. […] Increased oxidative stress can decrease tyrosine phosphatase activities (Tanner et al., 2011 Antioxid Redox Signal, 15:77-97), which can elevate tyrosine phosphorylation of focal adhesion kinase (FAK) and STAT3 proteins (Carballo et al., 1999 J Biol Chem, 274:17580-6; Ben et al., 2000 IUBMB Life, 50:291-9).

For assay [2], the system named is focal adhesion kinase (FAK). As to the kind of experiment: FAK tyrosine phosphorylation, immunoprecipitation and western blotting. The assay is classed as cell-based, human. Particulars: control and ZDHHC3-ablated MDA-MB-231 cells, FIG. 2C upper panels. The source says: Increased oxidative stress can decrease tyrosine phosphatase activities (Tanner et al., 2011 Antioxid Redox Signal, 15:77-97), which can elevate tyrosine phosphorylation of focal adhesion kinase (FAK) and STAT3 proteins (Carballo et al., 1999 J Biol Chem, 274:17580-6; Ben et al., 2000 IUBMB Life, 50:291-9).

Description for MCP-1: Cells were cultured in DMEM and/or RPMI medium (Invitrogen, Grand Island, N.Y.) containing 10% FBS (Sigma, Mo.), HEPES and 1% penicillin-streptomycin (Invitrogen, Grand Island, N.Y.). […] Cultured cells were lysed in 1% Triton X-100, and total protein was quantified using BCA protein estimation kit. Western blotting and relative band intensity densitometry were described previously (Sharma et al., 2012 Cell Mol Life Sci, 69:2233-44).

Consider `O=C1C(=Cc2cc([N+](=O)[O-])ccc2O)Sc2ccccc21` [2-(2-hydroxy-5-nitro-benzylidene)-benzo[b]thiophen-3-one], for which the “palmitoyltransferase activity of all DHHC proteins tested” value in the assay with DHHC proteins is given as “inhibited”.

Regarding `CCCCCCCCCCCCCCC(Br)C(=O)O` (stereo not drawn) [2-bromopalmitate], in the assay with DHHC proteins, the “palmitoyltransferase activity of all DHHC proteins tested” value is listed as “inhibited”.

On to `O=c1[nH]cc(F)c(=O)[nH]1` [5-Fu, 5-Fluorouracil], for which, in the assay on MDA-MB-231 cells, the “cell sensitivity to drug (apoptotic cell death, caspase-3) when zDHHC3 is ablated” value (“cell sensitivity … when zDHHC3 is ablated” below) is given as “enhanced”.

For `COc1cc2ncnc(Nc3ccc(F)c(Cl)c3)c2cc1OCCCN1CCOCC1` [Gefitinib], in the assay with MDA-MB-231 cells, the “cell sensitivity … when zDHHC3 is ablated” value is listed as “not enhanced”.

On to `CC(=O)N[C@@H](CS)C(=O)O` [NAC, N-acetyl cysteine], for which the “MCP-1 upregulation in ZDHHC3-ablated cells” value (“MCP-1 upregulation” for short) with MCP-1 was “markedly diminished”. In addition, the “increased senescence measured by β-galactosidase activity and/or SASP marker MCP-1” value (shortened to “increased senescence measured”) in the assay with ZDHHC3-ablated cells was “substantially reversed”. For the same molecule, in assay [1], the “effect on oxidative stress/ROS elevated by ZDHHC3 ablation” value (“effect on oxidative stress/ROS elevated” for short) is reported as “substantially prevented”; the “direct and indirect effects of oxidative stress in ZDHHC3-ablated cells” value (from here on “direct and indirect effects”) is recorded as “substantially reversed”. Moreover, the “effect on oxidative stress/ROS elevated” value in assay [1] (listed as N-acetyl cysteine) is recorded as “partial reversal”. Moreover, the “effect on ZDHHC3 ablation-induced FAK tyrosine phosphorylation” value in assay [2] is “substantially prevented”.

`CC(C)c1c(C(=O)Nc2ccccc2)c(-c2ccccc2)c(-c2ccc(F)cc2)n1CC[C@@H](O)C[C@@H](O)CC(=O)O` [atorvastatin]: the “MCP-1 upregulation” value in the assay on MCP-1 was “markedly diminished”. For the same molecule, the “increased senescence measured” value in the assay on ZDHHC3-ablated cells is listed as “substantially reversed”. Besides, the “direct and indirect effects” value in assay [1] is listed as “substantially reversed”. For the same molecule, the “effect on ZDHHC3 ablation-induced FAK tyrosine phosphorylation” value in assay [2] was “substantially prevented”.

On to `CC[C@@]1(O)C(=O)OCc2c1cc1n(c2=O)Cc2cc3ccccc3nc2-1` [camptothecin], for which the “cell sensitivity … when zDHHC3 is ablated” value in the assay on MDA-MB-231 cells was “enhanced”. The “cell sensitivity to drug (caspase-3) with inactive DHHC3 (D3M) compared to fully functional DHHC3 (D3R)” value with MDA-MB-231 cells (zDHHC3-ablated MDA-MB-231 reconstituted, lane 10 vs lane 9) is “markedly enhanced”.

With `O=C(O)CCCCC1CCSS1` (stereo not drawn) [α-LA, α-lipoic acid], the “MCP-1 upregulation” value in the assay on MCP-1 was “markedly diminished”. Also, in the assay with ZDHHC3-ablated cells, the “increased senescence measured” value is listed as “substantially reversed”. Further, in assay [1], the “effect on oxidative stress/ROS elevated” value was “substantially prevented”; the “direct and indirect effects” value is “substantially reversed”. The “effect on ZDHHC3 ablation-induced FAK tyrosine phosphorylation” value in assay [2] is reported as “substantially prevented”.
